From ChEMBL document CHEMBL3862020, “A fluorescent analogue of tauroursodeoxycholic acid reduces ER stress and is cytoprotective” (Bioorg Med Chem Lett, 2016)
The source made the active and inactive calls. The rule behind the calls is not given here.

Experiments:
[1] = tested on: Huh-7; assay: Cytoprotective activity against tunicamycin-induced ER stress in human HuH7 cells assessed as inhibition of XBPs mRNA levels after 6 hrs; format: functional, cell-based
[2] = Cytotoxicity against HEK293 cells assessed as reduction in cell viability by MTT assay; format: toxicity, cell-based; conditions: human
[3] = tested on: Huh-7; assay: Cytoprotective activity against DCA-induced cell death in human HuH7 cells assessed as increase in cell viability at 500 uM preincubated with cells followed by DCA addition measured after 24 hrs by MTT/INCELL assay; format: functional, cell-based
[4] = tested on: Huh-7; assay: Cytoprotective activity against tunicamycin-induced ER stress in human HuH7 cells assessed as inhibition of CHOP mRNA levels after 6 hrs; format: functional, cell-based
[5] = tested on: Huh-7; assay: Cytoprotective activity against DCA-induced ER stress in human HuH7 cells assessed as inhibition of […] mRNA levels after 6 hrs; format: functional, cell-based
[6] = tested on: Huh-7; assay: Cytoprotective activity against DCA-induced ER stress in human HuH7 cells assessed as increase in XBPu mRNA levels after 6 hrs; format: functional, cell-based
[7] = tested on: Huh-7; assay: Cytoprotective activity against tunicamycin-induced ER stress in human HuH7 cells assessed as reduction in XBPs/XBPu ratio after 6 hrs; format: functional, cell-based
[8] = tested on: Huh-7; assay: Cytoprotective activity against tunicamycin-induced ER stress in human HuH7 cells assessed as inhibition of BIP/GRP78 mRNA levels after 6 hrs; format: functional, cell-based
[9] = tested on: Huh-7; assay: Cytoprotective activity against DCA-induced ER stress in human HuH7 cells assessed as inhibition of XBPs mRNA levels after 6 hrs; format: functional, cell-based
[10] = Cytotoxicity against human HuH7 cells assessed as reduction in cell viability by MTT assay; format: toxicity, cell-based; conditions: huh-7
[11] = tested on: Huh-7; assay: Cytoprotective activity against tunicamycin-induced ER stress in human HuH7 cells assessed as increase in XBPu mRNA levels after 6 hrs; format: functional, cell-based
[12] = tested on: Huh-7; assay: Cytoprotective activity against DCA-induced cell death in human HuH7 cells assessed as increase in cell viability at 1 mM preincubated with cells followed by DCA addition measured after 24 hrs by MTT/INCELL assay; format: functional, cell-based
[13] = tested on: Huh-7; assay: Cytoprotective activity against tunicamycin-induced ER stress in human HuH7 cells assessed as inhibition of BIP/GRP78 mRNA levels at 1mM after 6 hrs; format: functional, cell-based

Row | Compound | inhibition [1] | Activity [2] | Activity [3] | inhibition [4] | inhibition [5] | Activity [6] | Activity [7] | inhibition [8] | inhibition [9] | Activity [10] | Activity [11] | Activity [12] | inhibition [13]
1 | C[C@H](CCC(=O)NCCS(=O)(=O)O)[C@H]1CC[C@H]2[C@@H]3[C@@H](O)C[C@@H]4C[C@H](NS(=O)(=O)c5cccc6c(N(C)C)cccc56)CCC4(C)[C@H]3CC[C@]12C (single isomer, unassigned) | Active | Non-Toxic | Active | Active | Active | Active | Active | Active | Active | Non-Toxic | Active |  | 
2 | C[C@H](CCC(=O)NCCS(=O)(=O)O)[C@H]1CC[C@H]2[C@@H]3[C@@H](O)C[C@@H]4C[C@H](O)CC[C@]4(C)[C@H]3CC[C@]12C [TAURURSODIOL] | Active | Non-Toxic |  | Active |  | Active | Active | Active | Active | Non-Toxic | Active | Active | 
3 | C[C@H](CCC(=O)O)[C@H]1CC[C@H]2[C@@H]3[C@@H](O)C[C@@H]4C[C@H](O)CC[C@]4(C)[C@H]3CC[C@]12C |  |  |  |  |  |  |  |  |  |  |  |  | Active
